From ChEMBL document CHEMBL1268971, “4,5-Dihydro-1H-pyrazolo[4,3-h]quinazolines as potent and selective Polo-like kinase 1 (PLK1) inhibitors” (Bioorg Med Chem Lett, 2010)
Converted amounts (≈) assume the structure as drawn.

Legend:
[1] = biological target: Serine/threonine-protein kinase PLK2 (Homo sapiens, UniProt Q9NYY3); test: Inhibition of PLK2
[2] = biological target: Serine/threonine-protein kinase PLK3 (Homo sapiens, UniProt Q9H4B4); test: Inhibition of PLK3
[3] = Solubility of the compound at pH 7; assay type: physicochemical; conditions: buffer
[4] = biological target: Cyclin-dependent kinase 2/cyclin A (Homo sapiens, UniProt P24941); test: Inhibition of CDK2/Cyclin A; assay type: protein-complex assay
[5] = biological target: Serine/threonine-protein kinase PLK1 (Homo sapiens, UniProt P53350)
[6] = test system: A2780; test: cells; conditions: Homo sapiens, A2780, 72 h
[7] = Inhibition of casein kinase 2
[8] = biological target: T1, Receptor-type tyrosine-protein kinase FLT3 (Homo sapiens, UniProt P36888); test: Inhibition of FLT3
T1 sequence (P36888 whole entry): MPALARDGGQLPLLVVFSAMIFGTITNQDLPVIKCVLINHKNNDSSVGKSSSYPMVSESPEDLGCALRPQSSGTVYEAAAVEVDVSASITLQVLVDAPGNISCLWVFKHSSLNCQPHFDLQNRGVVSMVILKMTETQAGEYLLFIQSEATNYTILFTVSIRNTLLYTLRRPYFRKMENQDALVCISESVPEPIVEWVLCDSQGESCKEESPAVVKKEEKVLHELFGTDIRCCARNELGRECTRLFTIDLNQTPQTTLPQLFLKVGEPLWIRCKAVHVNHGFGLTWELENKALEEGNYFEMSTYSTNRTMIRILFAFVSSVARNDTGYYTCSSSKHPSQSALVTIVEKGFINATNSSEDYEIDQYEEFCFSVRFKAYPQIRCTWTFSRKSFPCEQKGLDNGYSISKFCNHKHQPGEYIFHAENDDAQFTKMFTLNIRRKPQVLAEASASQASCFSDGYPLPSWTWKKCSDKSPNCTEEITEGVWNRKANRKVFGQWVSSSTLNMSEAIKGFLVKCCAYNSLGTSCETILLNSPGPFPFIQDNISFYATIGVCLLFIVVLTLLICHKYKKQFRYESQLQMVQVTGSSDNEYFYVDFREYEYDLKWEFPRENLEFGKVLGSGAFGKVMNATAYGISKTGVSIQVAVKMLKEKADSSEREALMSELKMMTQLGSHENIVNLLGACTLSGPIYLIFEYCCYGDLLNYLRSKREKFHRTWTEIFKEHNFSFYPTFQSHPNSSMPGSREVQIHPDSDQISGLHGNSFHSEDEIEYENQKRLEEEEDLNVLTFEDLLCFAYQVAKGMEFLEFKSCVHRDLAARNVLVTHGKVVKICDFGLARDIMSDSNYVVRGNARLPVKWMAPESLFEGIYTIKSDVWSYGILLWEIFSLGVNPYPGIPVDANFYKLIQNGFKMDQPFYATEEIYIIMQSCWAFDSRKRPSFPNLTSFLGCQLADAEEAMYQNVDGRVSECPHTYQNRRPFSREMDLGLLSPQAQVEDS

[9] = biological target: Serine/threonine-protein kinase Nek6 (Homo sapiens, UniProt Q9HC98); test: Inhibition of NEK6
[10] = Inhibition of PDGFR
[11] = biological target: ALK tyrosine kinase receptor (Homo sapiens, UniProt Q9UM73); test: Inhibition of ALK
[12] = Solubility of the compound at 105 Tween 80; assay type: physicochemical
[13] = Permeability of the compound by PAMPA; assay type: ADME
[14] = Intrinsic clearance in human liver microsomes; assay type: ADME, Microsome
[15] = AUC (0 to infinity) in CD1 mouse at 10 mg/kg, iv administered as single dose by LC/MS/MS analysis; assay type: ADME, organism-based; set-up: time infinity, dose 10 mg/kg, route intravenous; conditions: plasma
[16] = Clearance in CD1 mouse at 10 mg/kg, iv administered as single dose by LC/MS/MS analysis; assay type: ADME, organism-based; set-up: dose 10 mg/kg, route intravenous; conditions: in vivo
[17] = Volume of distribution at steady state in CD1 mouse at 10 mg/kg, iv administered as single dose by LC/MS/MS analysis; assay type: ADME, organism-based; set-up: dose 10 mg/kg, route intravenous; conditions: in vivo, read-out: Vdss
[18] = Terminal half life in CD1 mouse at 10 mg/kg, iv administered as single dose by LC/MS/MS analysis; assay type: ADME, organism-based; set-up: dose 10 mg/kg, route intravenous; conditions: in vivo, read-out: beta t1/2 (converted)
[19] = Cmax in CD1 mouse at 10 mg/kg, po administered as single dose by LC/MS/MS analysis; assay type: ADME, organism-based; set-up: dose 10 mg/kg, route oral; conditions: in vivo
[20] = AUC (0 to infinity) in CD1 mouse at 10 mg/kg, po administered as single dose by LC/MS/MS analysis; assay type: ADME, organism-based; set-up: time infinity, dose 10 mg/kg, route oral; conditions: plasma
[21] = Terminal half life in CD1 mouse at 10 mg/kg, po administered as single dose by LC/MS/MS analysis; assay type: ADME, organism-based; set-up: dose 10 mg/kg, route oral; conditions: in vivo, read-out: beta t1/2 (converted)
[22] = Oral bioavailability in CD1 mouse at 10 mg/kg administered as single dose by LC/MS/MS analysis; assay type: ADME, organism-based; conditions: in vivo

Serine/threonine-protein kinase PLK2, sequence (Q9NYY3 whole entry): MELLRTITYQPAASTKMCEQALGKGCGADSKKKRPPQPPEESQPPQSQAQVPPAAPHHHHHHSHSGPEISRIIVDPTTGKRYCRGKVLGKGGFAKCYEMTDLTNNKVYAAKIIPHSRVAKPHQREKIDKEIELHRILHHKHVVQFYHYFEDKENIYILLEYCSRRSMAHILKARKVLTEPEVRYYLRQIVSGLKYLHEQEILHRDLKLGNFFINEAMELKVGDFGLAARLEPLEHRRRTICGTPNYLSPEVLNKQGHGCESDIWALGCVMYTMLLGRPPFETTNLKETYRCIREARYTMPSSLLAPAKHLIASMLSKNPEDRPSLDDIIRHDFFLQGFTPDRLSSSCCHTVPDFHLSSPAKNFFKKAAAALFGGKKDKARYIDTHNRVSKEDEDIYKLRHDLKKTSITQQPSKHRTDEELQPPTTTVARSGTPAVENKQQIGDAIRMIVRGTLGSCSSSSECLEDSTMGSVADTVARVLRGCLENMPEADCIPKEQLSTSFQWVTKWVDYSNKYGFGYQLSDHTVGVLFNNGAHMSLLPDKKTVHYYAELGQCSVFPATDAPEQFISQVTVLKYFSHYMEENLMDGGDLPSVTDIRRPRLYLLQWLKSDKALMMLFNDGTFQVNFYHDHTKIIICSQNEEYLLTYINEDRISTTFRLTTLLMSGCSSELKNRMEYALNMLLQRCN
Serine/threonine-protein kinase PLK3, sequence (Q9H4B4 whole entry): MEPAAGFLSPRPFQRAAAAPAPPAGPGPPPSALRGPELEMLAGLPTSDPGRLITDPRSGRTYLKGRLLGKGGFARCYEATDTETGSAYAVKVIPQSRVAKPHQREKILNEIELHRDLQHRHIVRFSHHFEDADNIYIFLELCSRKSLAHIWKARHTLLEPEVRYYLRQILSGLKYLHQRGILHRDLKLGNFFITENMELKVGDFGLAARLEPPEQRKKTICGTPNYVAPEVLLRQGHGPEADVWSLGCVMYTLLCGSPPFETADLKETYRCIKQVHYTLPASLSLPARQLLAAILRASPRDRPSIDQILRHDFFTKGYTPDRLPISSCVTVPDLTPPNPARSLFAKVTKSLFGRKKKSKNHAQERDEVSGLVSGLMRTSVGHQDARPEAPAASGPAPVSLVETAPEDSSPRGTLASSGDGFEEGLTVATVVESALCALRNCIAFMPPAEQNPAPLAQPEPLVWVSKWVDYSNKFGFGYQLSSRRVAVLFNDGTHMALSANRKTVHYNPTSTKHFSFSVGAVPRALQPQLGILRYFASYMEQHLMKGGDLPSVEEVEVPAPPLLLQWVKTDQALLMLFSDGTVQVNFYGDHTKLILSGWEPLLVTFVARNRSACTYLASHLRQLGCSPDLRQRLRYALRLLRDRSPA
Serine/threonine-protein kinase Nek6, sequence (Q9HC98 whole entry): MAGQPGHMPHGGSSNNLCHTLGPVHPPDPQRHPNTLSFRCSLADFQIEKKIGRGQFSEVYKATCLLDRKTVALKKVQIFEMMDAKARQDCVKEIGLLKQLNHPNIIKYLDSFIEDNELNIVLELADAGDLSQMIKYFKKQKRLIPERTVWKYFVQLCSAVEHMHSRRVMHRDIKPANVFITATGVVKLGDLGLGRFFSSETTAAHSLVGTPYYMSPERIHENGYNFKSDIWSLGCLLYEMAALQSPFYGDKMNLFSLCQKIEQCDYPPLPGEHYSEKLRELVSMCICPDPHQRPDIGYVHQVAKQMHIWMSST
ALK tyrosine kinase receptor, sequence (Q9UM73 whole entry): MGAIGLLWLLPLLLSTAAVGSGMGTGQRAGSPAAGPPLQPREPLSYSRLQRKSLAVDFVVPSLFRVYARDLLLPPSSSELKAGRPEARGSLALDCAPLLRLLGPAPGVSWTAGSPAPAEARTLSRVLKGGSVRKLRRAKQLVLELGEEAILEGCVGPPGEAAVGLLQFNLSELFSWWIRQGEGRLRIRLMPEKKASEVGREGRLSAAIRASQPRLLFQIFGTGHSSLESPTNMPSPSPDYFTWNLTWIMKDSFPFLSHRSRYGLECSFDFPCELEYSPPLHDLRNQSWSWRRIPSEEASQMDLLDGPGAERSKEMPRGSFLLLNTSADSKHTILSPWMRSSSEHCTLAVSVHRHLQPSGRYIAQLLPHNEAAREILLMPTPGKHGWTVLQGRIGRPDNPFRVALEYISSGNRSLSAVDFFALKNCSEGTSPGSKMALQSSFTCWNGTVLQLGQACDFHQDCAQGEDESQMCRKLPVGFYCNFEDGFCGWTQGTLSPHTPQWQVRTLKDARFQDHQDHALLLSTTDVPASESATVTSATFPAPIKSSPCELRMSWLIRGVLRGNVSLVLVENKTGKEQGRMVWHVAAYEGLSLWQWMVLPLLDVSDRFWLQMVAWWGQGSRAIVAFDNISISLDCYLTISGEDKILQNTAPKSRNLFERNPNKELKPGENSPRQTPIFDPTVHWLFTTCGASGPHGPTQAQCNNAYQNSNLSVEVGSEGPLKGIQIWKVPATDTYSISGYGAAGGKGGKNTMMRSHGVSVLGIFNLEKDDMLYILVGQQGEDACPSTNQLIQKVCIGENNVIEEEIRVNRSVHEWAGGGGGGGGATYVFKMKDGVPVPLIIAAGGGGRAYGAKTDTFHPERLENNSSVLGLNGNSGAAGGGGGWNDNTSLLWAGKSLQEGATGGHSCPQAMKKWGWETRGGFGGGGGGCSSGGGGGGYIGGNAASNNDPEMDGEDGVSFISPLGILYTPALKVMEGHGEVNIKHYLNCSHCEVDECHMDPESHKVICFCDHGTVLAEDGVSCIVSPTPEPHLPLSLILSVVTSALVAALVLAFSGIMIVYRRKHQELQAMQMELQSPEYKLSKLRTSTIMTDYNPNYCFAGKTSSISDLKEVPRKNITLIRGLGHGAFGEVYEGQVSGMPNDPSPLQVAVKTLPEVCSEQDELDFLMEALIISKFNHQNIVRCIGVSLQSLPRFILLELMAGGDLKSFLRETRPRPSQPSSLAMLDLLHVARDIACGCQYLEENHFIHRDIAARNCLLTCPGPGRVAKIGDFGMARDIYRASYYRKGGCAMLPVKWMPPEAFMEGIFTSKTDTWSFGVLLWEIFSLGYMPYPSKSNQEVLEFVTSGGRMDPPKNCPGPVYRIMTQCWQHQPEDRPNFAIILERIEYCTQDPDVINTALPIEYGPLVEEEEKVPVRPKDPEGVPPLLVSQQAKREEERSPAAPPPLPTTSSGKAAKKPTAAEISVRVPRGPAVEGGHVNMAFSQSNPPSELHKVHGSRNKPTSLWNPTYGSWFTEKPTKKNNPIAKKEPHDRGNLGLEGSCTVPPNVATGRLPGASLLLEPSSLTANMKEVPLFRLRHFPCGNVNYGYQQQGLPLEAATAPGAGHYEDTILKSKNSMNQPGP
Serine/threonine-protein kinase PLK1, sequence (P53350 whole entry): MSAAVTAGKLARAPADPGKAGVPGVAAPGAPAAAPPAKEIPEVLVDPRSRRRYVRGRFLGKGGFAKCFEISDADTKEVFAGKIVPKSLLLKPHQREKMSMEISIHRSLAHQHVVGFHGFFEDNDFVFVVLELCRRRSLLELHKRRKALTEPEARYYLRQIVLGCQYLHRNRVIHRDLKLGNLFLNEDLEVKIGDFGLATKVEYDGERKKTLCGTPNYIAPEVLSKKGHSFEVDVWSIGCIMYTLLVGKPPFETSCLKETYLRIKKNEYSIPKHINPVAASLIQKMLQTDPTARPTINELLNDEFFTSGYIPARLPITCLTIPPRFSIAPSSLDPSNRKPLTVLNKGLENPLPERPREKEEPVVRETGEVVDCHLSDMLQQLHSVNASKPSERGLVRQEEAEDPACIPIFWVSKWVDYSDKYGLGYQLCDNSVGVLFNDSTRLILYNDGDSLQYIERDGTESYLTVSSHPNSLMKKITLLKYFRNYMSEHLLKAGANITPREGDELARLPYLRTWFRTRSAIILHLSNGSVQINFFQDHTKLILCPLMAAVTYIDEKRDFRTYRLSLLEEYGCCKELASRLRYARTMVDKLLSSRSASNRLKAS

SMILES	IC50 [1] [µM]	IC50 [2] [µM]	solubility [3] [µM]	IC50 [4] [nM]	IC50 [5] [nM]	IC50 [6] [nM]	other results
CCn1nc(C(N)=O)c2c1-c1nc(Nc3cc(N4CCN(C)CC4)ccc3OC(F)(F)F)ncc1CC2	> 10	> 10	21 (≈ 10.8 µg/mL)	> 10000	6	11	
CN1CCCC1CCNc1ccc(OC(F)(F)F)c(Nc2ncc3c(n2)-c2c(c(C(N)=O)nn2C)CC3)c1 (stereo not drawn)	0.429		157 (≈ 83.3 µg/mL)	969		2560	
CN1C(C)(C)CC(Nc2ccc(OC(F)(F)F)c(Nc3ncc4c(n3)-c3c(c(C(N)=O)nn3C)CC4)c2)CC1(C)C	> 10	> 10	147 (≈ 84.2 µg/mL)	3020	964	1750	
Cn1nc(C(N)=O)c2c1-c1nc(Nc3cc(NC4CCNC4)ccc3OC(F)(F)F)ncc1CC2 (stereo not drawn)	0.762		171 (≈ 83.5 µg/mL)	414		2220	
Cn1nc(C(N)=O)c2c1-c1nc(Nc3cc(N)ccc3OC(F)(F)F)ncc1CC2	1.28		31 (≈ 13 µg/mL)	1180		1080	
CN1CCN(c2ccc(OC(F)(F)F)c(Nc3ncc4c(n3)-c3c(c(C(N)=O)nn3CCCl)CC4)c2)CC1	> 10	> 10	9 (≈ 4.96 µg/mL)	2010		31	
Cn1nc(C(N)=O)c2c1-c1nc(Nc3cc(N4CC[N+](C)([O-])CC4)ccc3OC(F)(F)F)ncc1CC2	> 10		> 225	> 10000		782	
C=Cn1nc(C(N)=O)c2c1-c1nc(Nc3cc(N4CCN(C)CC4)ccc3OC(F)(F)F)ncc1CC2	0.335	0.182	8 (≈ 4.12 µg/mL)	> 10000		8	IC50 [7]: 69 nM; IC50 [8]: 226 nM; IC50 [9]: 336 nM; IC50 [10]: 1.46 µM; IC50 [11]: 2.38 µM; solubility [12]: > 3200 µg/mL; Papp [13]: 19.6 ×10⁻⁶ cm/s; CLint scaled [14]: 28.8 mL/min/kg; AUC(0-inf) [15]: 5.37 µM·h; clearance [16]: 57.3 mL/min/kg; Vd [17]: 2.58 L/kg; half-life [18]: 53.4 min; Cmax [19]: 610 nM; AUC(0-inf) [20]: 2.15 µM·h; half-life [21]: 155 min; bioavailability [22]: 29%
Cn1nc(C(N)=O)c2c1-c1nc(Nc3cc([N+]4([O-])CC[N+](C)([O-])CC4)ccc3OC(F)(F)F)ncc1CC2 (stereo not drawn)	> 10	> 10	48 (≈ 25.7 µg/mL)	> 10000	2680	> 10000	
CCN1CCN(c2ccc(OC(F)(F)F)c(Nc3ncc4c(n3)-c3c(c(C(N)=O)nn3C)CC4)c2)CC1	3.39		33 (≈ 17 µg/mL)	> 10000		34	
CN1CCC(Nc2ccc(OC(F)(F)F)c(Nc3ncc4c(n3)-c3c(c(C(N)=O)nn3C)CC4)c2)CC1	3.42		> 225	1020		1090	
CN1CCN(c2ccc(OC(F)(F)F)c(Nc3ncc4c(n3)-c3c(c(C(N)=O)nn3CCF)CC4)c2)CC1	> 10	> 10	18 (≈ 9.62 µg/mL)	> 10000	4	14	IC50 [7]: 134 nM; IC50 [8]: 216 nM; IC50 [9]: > 10000 nM; IC50 [10]: > 10 µM; IC50 [11]: > 10 µM; solubility [12]: 2100 µg/mL (≈ 3.93 mM); Papp [13]: 50 ×10⁻⁶ cm/s; CLint scaled [14]: 56.1 mL/min/kg; AUC(0-inf) [15]: 10.2 µM·h; clearance [16]: 40.3 mL/min/kg; Vd [17]: 1.53 L/kg; half-life [18]: 44.4 min; Cmax [19]: 260 nM; AUC(0-inf) [20]: 0.192 µM·h; bioavailability [22]: 2%
COCCn1nc(C(N)=O)c2c1-c1nc(Nc3cc(N4CCN(C)CC4)ccc3OC(F)(F)F)ncc1CC2	> 10	> 10	136 (≈ 74.3 µg/mL)	> 10000	15	75	
Cn1nc(C(N)=O)c2c1-c1nc(Nc3cc(N4CCC(N5CCCC5)CC4)ccc3OC(F)(F)F)ncc1CC2	> 10	> 10	133 (≈ 74 µg/mL)	> 10000	33	583	
CN1CCN(c2ccc(OC(F)(F)F)c(Nc3ncc4c(n3)-c3[nH]nc(C(N)=O)c3CC4)c2)CC1	> 10	> 10	12 (≈ 5.86 µg/mL)	> 10000	4	93	
Cn1nc(C(N)=O)c2c1-c1nc(Nc3ccccc3OC(F)(F)F)ncc1CC2	0.206	0.032	< 1	1760	117	6410	
CN1CCCN(c2ccc(OC(F)(F)F)c(Nc3ncc4c(n3)-c3c(c(C(N)=O)nn3C)CC4)c2)CC1	> 10	> 10	95 (≈ 49.1 µg/mL)	> 10000	25	941	
Cn1nc(C(N)=O)c2c1-c1nc(Nc3cc(N4CCNCC4)ccc3OC(F)(F)F)ncc1CC2	> 10	1.43	114 (≈ 55.7 µg/mL)	> 10000		30	IC50 [7]: 59 nM; IC50 [8]: 194 nM; IC50 [9]: 595 nM; IC50 [10]: > 10 µM; IC50 [11]: > 10 µM; solubility [12]: 1100 µg/mL (≈ 2.25 mM); Papp [13]: 7.22 ×10⁻⁶ cm/s; CLint scaled [14]: 6.9 mL/min/kg
Cn1nc(C(N)=O)c2c1-c1nc(Nc3cc(N4CCN(C(=O)N5CCNCC5)CC4)ccc3OC(F)(F)F)ncc1CC2	0.19		85 (≈ 51.1 µg/mL)	622		538	
Cn1nc(C(N)=O)c2c1-c1nc(Nc3cc(N4CCN(C(=O)OC(C)(C)C)CC4)ccc3OC(F)(F)F)ncc1CC2	0.768			1130		1290	
CN1CCN(c2ccc(OC(F)(F)F)c(Nc3ncc4c(n3)-c3c(c(C(N)=O)nn3C(c3ccccc3)(c3ccccc3)c3ccccc3)CC4)c2)CC1			< 1	> 10000	> 10000	2100	
